This is an account of results in US20260306640A1, “TECHNOLOGIES TARGETING CELL STATES” (Auron Therapeutics, Inc., priority 2023, published 2026).

By DC50 is commonly meant the midpoint of the concentration-degradation curve.

In one assay the target is KAT2A (Homo sapiens, UniProt Q92830). In words: KAT2A degradation, Western Blot (Jess), NCI-H1048 cells. The class given is cell-based. Also noted: degrader, Western blot (Jess). The conditions noted are these: NCI-H1048 cells, KAT2A, 24 h, Western Blot, vs DMSO; read-out: KAT2A NCI-H1048 DC50. How it is done:
(§1) MOLM-13 cells or NCI-H1048 cells were used for Western Blot analysis of KAT2A degradation. KAT2B degradation can be measured in a similar manner with NCI-H1048 cells.
(§2) H1048 cells were maintained at 37° C. in 5% CO2 and 90% humidity in HITES medium with 5% fetal bovine serum (FBS). HITES medium was […] with the following additions: 0.005 mg/ml Insulin, 0.01 mg/ml Transferrin, 30 nM Sodium selenite, 10 nM Hydrocortisone, 10 nM beta-estradiol, and extra 2 mM L-glutamine (for final concentration of 4.5 mM). Cells were plated in full media at 1 million cells/2 mL in a 6-well tissue culture treated plate with or without compounds for 24 h at 37° C. in 5% CO2.
(§3) MOLM-13 cells or NCI-H1048 cells were washed with PBS, then lysed with RIPA buffer containing 1×protease and phosphatase inhibitors (SantaCruz Biotechnologies Cat #sc-24948A). Protein was isolated by centrifugation at 12,000×g for 10 minutes at 4° C. and supernatant was collected. Protein was quantified via Bradford assay. Samples were diluted to 4 μg lysate in 16 μL RIPA buffer and then 4 μL of Jess Sample Buffer. Samples were heated at 95° C. for 5 minutes. Samples were loaded onto 12-230 kDa Jess™ Separation Module, 8×25 capillary cartridges (SM-W004, Biotechne). Antibodies loaded were: Primary antibody for KAT2A (GCN5L2 (C26A10) Rabbit mAb (3305, CST)) and for KAT2B (PCAF (C14G9)) Rabbit mAb (3378, CST) at 1:1000 and Anti-Rabbit Detection Module for Jess™ (Cat No #DM-001, Biotechne). Signal was detected by chemiluminescence.
(§4) DC50 values were determined from percent reduction of protein as compared to the DMSO control.

Another assay addresses KAT2B (Homo sapiens, UniProt Q92831). In words: KAT2B degradation, Western Blot (Jess), NCI-H1048 cells. The class given is cell-based. Also noted: degrader, Western blot (Jess). The conditions noted are these: NCI-H1048 cells, KAT2B, 24 h, Western Blot, vs DMSO; read-out: KAT2B NCI-H1048 DC50. The procedure:
as §1, §2, §3, §4
A general note: In western blotting, separated proteins are transferred to a membrane and probed.

Chain of KAT2B (Q92831 whole entry): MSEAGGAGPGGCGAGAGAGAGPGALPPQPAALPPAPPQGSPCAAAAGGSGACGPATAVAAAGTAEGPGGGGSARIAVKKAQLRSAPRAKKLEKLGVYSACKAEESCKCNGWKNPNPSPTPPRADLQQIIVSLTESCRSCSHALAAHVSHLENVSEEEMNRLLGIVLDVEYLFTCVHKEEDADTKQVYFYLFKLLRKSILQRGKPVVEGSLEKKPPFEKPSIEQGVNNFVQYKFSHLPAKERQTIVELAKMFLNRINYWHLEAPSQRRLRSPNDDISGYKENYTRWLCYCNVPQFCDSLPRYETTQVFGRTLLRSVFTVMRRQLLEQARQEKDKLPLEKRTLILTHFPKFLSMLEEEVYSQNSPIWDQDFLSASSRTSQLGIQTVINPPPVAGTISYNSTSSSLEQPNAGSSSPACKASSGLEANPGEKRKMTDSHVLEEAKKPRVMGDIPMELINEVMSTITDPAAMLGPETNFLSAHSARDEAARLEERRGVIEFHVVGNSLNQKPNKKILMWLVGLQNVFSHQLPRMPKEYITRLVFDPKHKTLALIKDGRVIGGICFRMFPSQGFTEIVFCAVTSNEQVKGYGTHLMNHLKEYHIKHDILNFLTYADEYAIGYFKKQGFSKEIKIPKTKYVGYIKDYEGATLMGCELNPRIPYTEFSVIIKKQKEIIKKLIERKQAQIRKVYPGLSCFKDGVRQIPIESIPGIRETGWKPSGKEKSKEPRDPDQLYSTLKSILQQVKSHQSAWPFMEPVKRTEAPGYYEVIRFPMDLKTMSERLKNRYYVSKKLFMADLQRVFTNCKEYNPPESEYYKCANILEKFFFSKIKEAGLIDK
Chain of KAT2A (Q92830 whole entry): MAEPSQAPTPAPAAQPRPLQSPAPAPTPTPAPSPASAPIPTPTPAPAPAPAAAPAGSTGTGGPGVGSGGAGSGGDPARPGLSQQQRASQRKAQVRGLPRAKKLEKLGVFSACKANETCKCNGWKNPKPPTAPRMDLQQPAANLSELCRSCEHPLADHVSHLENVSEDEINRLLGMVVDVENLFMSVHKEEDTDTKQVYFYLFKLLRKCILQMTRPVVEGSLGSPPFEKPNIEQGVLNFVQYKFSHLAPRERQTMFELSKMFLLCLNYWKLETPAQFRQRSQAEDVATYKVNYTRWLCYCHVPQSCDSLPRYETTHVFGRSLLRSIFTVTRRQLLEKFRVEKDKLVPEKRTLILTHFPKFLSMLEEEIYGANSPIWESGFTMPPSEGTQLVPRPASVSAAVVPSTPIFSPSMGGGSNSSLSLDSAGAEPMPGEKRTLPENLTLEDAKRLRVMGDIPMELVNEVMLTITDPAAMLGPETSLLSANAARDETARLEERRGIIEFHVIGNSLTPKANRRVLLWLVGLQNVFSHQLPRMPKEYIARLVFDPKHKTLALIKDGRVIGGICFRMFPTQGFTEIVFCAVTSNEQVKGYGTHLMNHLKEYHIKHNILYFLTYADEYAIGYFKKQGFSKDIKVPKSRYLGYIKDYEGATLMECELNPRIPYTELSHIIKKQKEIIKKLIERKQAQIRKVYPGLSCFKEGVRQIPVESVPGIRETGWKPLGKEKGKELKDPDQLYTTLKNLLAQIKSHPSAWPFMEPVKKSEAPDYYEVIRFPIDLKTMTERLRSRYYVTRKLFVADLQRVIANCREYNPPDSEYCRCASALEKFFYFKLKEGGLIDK

Take `CN1C[C@H](Nc2cnn(C)c(=O)c2Br)C[C@H](c2ccc(C(=O)N3CCC4(CC3)CCN(c3ccc(C5CCC(=O)NC5=O)cc3)CC4)cc2)C1` (single isomer, unassigned) [Compound 239]: the DC50 on KAT2A and at KAT2B was below 0.001 µM in each case. With `Cc1cc(N2CCC3(CCN(C(=O)c4ccc([C@H]5C[C@@H](Nc6cnn(C)c(=O)c6Br)CN(C)C5)cc4)CC3)CC2)cc(F)c1C1CCC(=O)NC1=O` (some centres unmarked) [Compound 2-69], the DC50 at KAT2A and at KAT2B was below 0.001 µM each time. In the case of `CN1C[C@H](Nc2cnn(C)c(=O)c2Br)C[C@H](c2ccc(C(=O)N3CCC4(CC3)CCN(c3cccc5c3C(=O)N(C3CCC(=O)NC3=O)C5=O)CC4)cc2)C1` (some centres unmarked) [Compound 17], the DC50 on KAT2A and on KAT2B was 0.001 to 0.03 µM in each case.

Turning to `CN1C[C@H](Nc2cnn(C)c(=O)c2Br)C[C@H](c2ccc(C(=O)N3CC(c4ccc(C5CCC(=O)NC5=O)cc4)C3)cc2)C1` (some centres unmarked) [Compound 189], the results for the DC50 at KAT2A and on KAT2B were 0.001 to 0.03 µM and above 0.03 µM, respectively. Turning to `CN1C[C@H](Nc2cnn(C)c(=O)c2Br)C[C@H](c2ccc(CN3CC(c4cccc(C5CCC(=O)NC5=O)c4)C3)cc2)C1` (some centres unmarked) [Compound 190], the results for the DC50 on KAT2A and at KAT2B were 0.001 to 0.03 µM and above 0.03 µM, respectively.

Regarding `CN1C[C@H](Nc2cnn(C)c(=O)c2Br)C[C@H](c2ccc(C(=O)N3CC(c4cccc(C5CCC(=O)NC5=O)c4)C3)cc2)C1` (some centres unmarked) [Compound 191], the DC50 was 0.001 to 0.03 µM on KAT2A and above 0.03 µM on KAT2B.

Consider `Cc1c(N[C@@H]2C[C@H](c3ccc(COc4ccc5c(c4)C(=O)N(C4CCC(=O)NC4=O)C5=O)cc3)CN(C)C2)cnn(C)c1=O` (some centres unmarked) [Compound 192], for which the DC50 was below 0.001 µM on KAT2A and above 0.03 µM at KAT2B. For `CN1C[C@H](Nc2cnn(C)c(=O)c2Cl)C[C@H](c2ccc(C(=O)N3CC(c4cccc(C5CCC(=O)NC5=O)c4)C3)cc2)C1` (some centres unmarked) [Compound 193], in that order: 0.001 to 0.03 µM and above 0.03 µM. Taken in the same sequence, the figures for `CN1C[C@H](Nc2cnn(C)c(=O)c2Cl)C[C@H](c2ccc(CN3CC(c4cccc(C5CCC(=O)NC5=O)c4)C3)cc2)C1` (some centres unmarked) [Compound 194] were 0.001 to 0.03 µM and above 0.03 µM. As to `CN1C[C@H](Nc2cnn(C)c(=O)c2Br)C[C@H](c2ccc(CN3CC(c4ccc(C5CCC(=O)NC5=O)cc4)C3)cc2)C1` (some centres unmarked) [Compound 195], the values for the DC50 at KAT2A and at KAT2B were 0.001 to 0.03 µM and above 0.03 µM, respectively. In the case of `CN1C[C@H](Nc2cnn(C)c(=O)c2Br)C[C@H](c2ccc(CN3CCN(c4cccc5c4oc(=O)n5C4CCC(=O)NC4=O)CC3)cc2)C1` (some centres unmarked) [Compound 196], the DC50 at KAT2A and on KAT2B was below 0.001 µM in each case. Consider `CN1C[C@H](Nc2cnn(C)c(=O)c2Br)C[C@H](c2ccc(C(=O)N3CC(c4ccc5c(c4)C(=O)N(C4CCC(=O)NC4=O)C5=O)C3)cc2)C1` (some centres unmarked) [Compound 197], for which the DC50 at KAT2A was 0.001 to 0.03 µM; at KAT2B, above 0.03 µM.

`CN1C[C@H](Nc2cnn(C)c(=O)c2Cl)C[C@H](c2ccc(C(=O)N3CC(c4ccc5c(c4)C(=O)N(C4CCC(=O)NC4=O)C5=O)C3)cc2)C1` (some centres unmarked) [Compound 198]: the 50% degradation concentration (DC50) on KAT2A is 0.001 to 0.03 µM; at KAT2B, above 0.03 µM. With `CN1C[C@H](Nc2cnn(C)c(=O)c2Cl)C[C@H](c2ccc(CN3CC(c4ccc5c(c4)C(=O)N(C4CCC(=O)NC4=O)C5=O)C3)cc2)C1` (some centres unmarked) [Compound 199], the DC50 on KAT2A and at KAT2B was above 0.03 µM each time. On to `CN1C[C@H](Nc2cnn(C)c(=O)c2Br)C[C@H](c2ccc(CN3Cc4cc5c(cc4C3)C(=O)N(C3CCC(=O)NC3=O)C5=O)cc2)C1` (some centres unmarked) [Compound 200], for which the figures for the DC50 at KAT2A and at KAT2B were 0.001 to 0.03 µM and above 0.03 µM, respectively. In the case of `CN1C[C@H](Nc2cnn(C)c(=O)c2Br)C[C@H](c2ccc(C(=O)N3CCN(c4cccc5c4oc(=O)n5C4CCC(=O)NC4=O)CC3)cc2)C1` (some centres unmarked) [Compound 201], the results for the DC50 on KAT2A and at KAT2B were below 0.001 µM and 0.001 to 0.03 µM, respectively. For `CN1C[C@H](Nc2cnn(C)c(=O)c2Br)C[C@H](c2ccc(CN3CC(c4ccc5c(c4)C(=O)N(C4CCC(=O)NC4=O)C5=O)C3)cc2)C1` (some centres unmarked) [Compound 202], the DC50 on KAT2A was 0.001 to 0.03 µM; on KAT2B, above 0.03 µM. `Cc1c(C2CCC(=O)NC2=O)ccc(N2CCC3(CCN(C(=O)c4ccc([C@H]5C[C@@H](Nc6cnn(C)c(=O)c6Cl)CN(C)C5)cc4)CC3)CC2)c1F` (some centres unmarked) [Compound 253]: the DC50 at KAT2A was below 0.001 µM. Same read-out and setting: as for `COc1cc(N2CCC3(CCN(C(=O)c4ccc([C@H]5C[C@@H](Nc6cnn(C)c(=O)c6Br)CN(C)C5)cc4)CC3)CC2)cc(F)c1C1CCC(=O)NC1=O` (some centres unmarked) [Compound 280], the figure is 0.001 to 0.03 µM; as for `COc1cc(N2CCC3(CCN(C(=O)c4ccc([C@H]5C[C@@H](Nc6cnn(C)c(=O)c6Cl)CN(C)C5)cc4)CC3)CC2)cc(F)c1C1CCC(=O)NC1=O` (some centres unmarked) [Compound 281], 0.001 to 0.03 µM; as for `Cc1cc(N2CCC3(CCN(C(=O)c4ccc([C@H]5C[C@@H](Nc6cnn(C)c(=O)c6Br)CN(C)C5)cc4)CC3)CC2)cc(C)c1C1CCC(=O)NC1=O` (some centres unmarked) [Compound 282], below 0.001 µM.

As for `CN1C[C@H](Nc2cnn(C)c(=O)c2Br)C[C@H](c2ccc(CN3CCN(c4cncc(C5CCC(=O)NC5=O)c4)CC3)cc2)C1` (some centres unmarked) [Compound 345], on KAT2A, the DC50 is above 0.03 µM. Consider `C[C@@H]1CN(c2cccc(C3CCC(=O)NC3=O)c2)C[C@H](C)N1Cc1ccc([C@H]2C[C@@H](Nc3cnn(C)c(=O)c3Br)CN(C)C2)cc1` (some centres unmarked) [Compound 370], for which, on KAT2A, the DC50 lay in the range of 0.001 to 0.03 µM. On the same count and under the same terms, as for `C[C@@H]1CN(c2cccc(C3CCC(=O)NC3=O)c2)C[C@H](C)N1Cc1ccc([C@H]2C[C@@H](Nc3cnn(C)c(=O)c3Cl)CN(C)C2)cc1` (some centres unmarked) [Compound 371], the figure is 0.001 to 0.03 µM; as for `CN1C[C@H](Nc2cnn(C)c(=O)c2Br)C[C@H](c2ccc(C(=O)N3CCC4(CC3)CCN(c3ccc5c(N6CCC(=O)NC6=O)cncc5c3)CC4)cc2)C1` [Compound 375], 0.001 to 0.03 µM; as for `CN1C[C@H](Nc2cnn(C)c(=O)c2Cl)C[C@H](c2ccc(CN3CCC(c4ccc5c(c4)C(=O)N(C4CCC(=O)NC4=O)C5=O)C(F)(F)C3)cc2)C1` (some centres unmarked) [Compound 392], 0.001 to 0.03 µM. With `CN1C[C@H](Nc2cnn(C)c(=O)c2Cl)C[C@H](c2ccc(CN3CCN(c4cccc(CN5CCC(=O)NC5=O)c4)CC3)cc2)C1` [Compound 393], the DC50 at KAT2A was above 0.03 µM. On the same count and under the same terms, then `CN1C[C@H](Nc2cnn(C)c(=O)c2Br)C[C@H](c2ccc(N3CCC4(CC3)CCN(c3cccc(CN5CCC(=O)NC5=O)c3)CC4)cc2)C1` [Compound 400], with 0.001 to 0.03 µM; and `CC(=O)N[C@H](C(=O)N1C[C@H](O)C[C@H]1C(=O)NCc1ccc(-c2scnc2C)cc1OCCCCNC(=O)c1ccc([C@H]2C[C@@H](Nc3cnn(C)c(=O)c3Br)CN(C)C2)cc1)C(C)(C)C` [Compound 406, (2S,4R)-1-((S)-2-acetamido-3,3-dimethylbutanoyl)-N-(2-(4-(4-((3R,5R)-5-((5-bromo-1-methyl-6-oxo-1,6-dihydropyridazin-4-yl)amino)-1-methylpiperidin-3-yl)benzamido)-butoxy)-4-(4-methylthiazol-5-yl)benzyl)-4-hydroxypyrrolidine-2-carboxamide], with above 0.03 µM. On to `Cc1ncsc1-c1ccc(CNC(=O)[C@@H]2C[C@@H](O)CN2C(=O)[C@@H](NC(=O)C2CCN(C3CCN(C(=O)c4ccc([C@H]5C[C@@H](Nc6cnn(C)c(=O)c6Br)CN(C)C5)cc4)CC3)CC2)C(C)(C)C)cc1` [Compound 410], for which the DC50 at KAT2B is above 0.03 µM. Take `Cc1nnc2c3ccccc3c(N[C@@H](C)[C@H](c3ccc(C(=O)N4CCC5(CC4)CCN(c4ccc(C6CCC(=O)NC6=O)cc4)CC5)cc3)N(C)C)nn12` (stereo partly drawn) [Compound 426, 3-(4-(9-(4-((1S,2S)-1-(dimethylamino)-2-((3-methyl-[1,2,4]triazolo[3,4-a]phthalazin-6-yl)amino)propyl)benzoyl)-3,9-diazaspiro[5.5]undecan-3-yl)phenyl)piperidine-2,6-dione]: the DC50 on KAT2A lay in the range of 0.001 to 0.03 µM. Take `Cc1nnc2c3ccccc3c(N[C@@H](C)[C@H](c3ccc(CN4CCN(c5cccc(C6CCC(=O)NC6=O)c5)CC4)cc3)N(C)C)nn12` (stereo partly drawn) [Compound 428, 3-(3-(4-(4-((1S,2S)-1-(dimethylamino)-2-((3-methyl-[1,2,4]triazolo[3,4-a]phthalazin-6-yl)amino)propyl)benzyl)piperazin-1-yl)phenyl)piperidine-2,6-dione]: the DC50 on KAT2A is above 0.03 µM. Turning to `C[C@H](Nc1nn(C)c(=O)n(C)c1=O)[C@H](c1ccc(C(=O)N2CCC3(CC2)CCN(c2ccc(C4CCC(=O)NC4=O)cc2)CC3)cc1)N(C)C` (stereo partly drawn) [Compound 431, 6-(((1S,2S)-1-(dimethylamino)-1-(4-(9-(4-(2,6-dioxopiperidin-3-yl)phenyl)-3,9-diazaspiro[5.5]undecane-3-carbonyl)phenyl)propan-2-yl)amino)-2,4-dimethyl-1,2,4-triazine-3,5(2H,4H)-dione], the DC50 at KAT2A fell in the range of 0.001 to 0.03 µM.
